In PMC11027041 (RSC Advances, 2024):

Key:
K-562 = test: NCI-60 antiproliferative screening; assay type: cell-based; conditions: Homo sapiens, K562, read-out: percent inhibition
CAKI-1 = test: NCI-60 antiproliferative screening; assay type: cell-based; conditions: Homo sapiens, CAKI-1, read-out: percent inhibition
IGROV1 = test: NCI-60 antiproliferative screening; assay type: cell-based; conditions: Homo sapiens, IGROV-1, read-out: percent inhibition
MOLT-4 = test: NCI-60 antiproliferative screening; assay type: cell-based; conditions: Homo sapiens, MOLT-4, read-out: percent inhibition
NCI-H23 = test: NCI-60 antiproliferative screening; assay type: cell-based; conditions: Homo sapiens, NCI-H23, read-out: percent inhibition
HDAC11 = HDAC11 (Homo sapiens, UniProt Q96DB2); test: In vitro HDAC enzyme assay; assay type: biochemical
Chain of HDAC11 (Q96DB2 whole entry): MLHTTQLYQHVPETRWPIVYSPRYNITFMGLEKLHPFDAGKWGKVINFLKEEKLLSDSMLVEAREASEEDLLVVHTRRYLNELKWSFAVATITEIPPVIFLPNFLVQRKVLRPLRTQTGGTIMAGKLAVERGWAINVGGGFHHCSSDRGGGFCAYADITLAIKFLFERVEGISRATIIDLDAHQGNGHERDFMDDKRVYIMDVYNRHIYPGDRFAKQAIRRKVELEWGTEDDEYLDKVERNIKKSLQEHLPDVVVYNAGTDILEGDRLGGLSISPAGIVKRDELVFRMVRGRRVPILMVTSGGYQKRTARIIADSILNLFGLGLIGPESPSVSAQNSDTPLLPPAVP

[1] = tested on: fifty-nine cancer cell lines; test: NCI-60 antiproliferative screening, panel summary; assay type: cell-based; conditions: read-out: percent inhibition of 55 cell lines
SK-MEL-28 = test: NCI-60 antiproliferative screening; assay type: cell-based; conditions: Homo sapiens, SK-MEL-28, read-out: percent inhibition
NCI-H460 = test: NCI-60 antiproliferative screening; assay type: cell-based; conditions: Homo sapiens, NCI-H460, read-out: percent inhibition
SK-MEL-2 = test: NCI-60 antiproliferative screening; assay type: cell-based; conditions: Homo sapiens, SK-MEL-2, read-out: percent inhibition
SF-539 = test: NCI-60 antiproliferative screening; assay type: cell-based; conditions: Homo sapiens, SF-539, read-out: percent inhibition
SNB-19 = test: NCI-60 antiproliferative screening; assay type: cell-based; conditions: Homo sapiens, SNB-19, read-out: percent inhibition
CCRF-CEM = test: NCI-60 antiproliferative screening; assay type: cell-based; conditions: Homo sapiens, read-out: percent inhibition
MDA-MB-468 = test: NCI-60 antiproliferative screening; assay type: cell-based; conditions: Homo sapiens, MDA-MB-468, read-out: percent inhibition
SR = test: NCI-60 antiproliferative screening; assay type: cell-based; conditions: Homo sapiens, read-out: percent inhibition
DU-145 = test: NCI-60 antiproliferative screening; assay type: cell-based; conditions: Homo sapiens, DU-145, read-out: percent inhibition
SF-268 = test: NCI-60 antiproliferative screening; assay type: cell-based; conditions: Homo sapiens, SF-268, read-out: percent inhibition
HDAC2 = HDAC2 (Homo sapiens, UniProt Q92769); test: In vitro HDAC enzyme assay; assay type: biochemical
Chain of HDAC2 (Q92769 whole entry): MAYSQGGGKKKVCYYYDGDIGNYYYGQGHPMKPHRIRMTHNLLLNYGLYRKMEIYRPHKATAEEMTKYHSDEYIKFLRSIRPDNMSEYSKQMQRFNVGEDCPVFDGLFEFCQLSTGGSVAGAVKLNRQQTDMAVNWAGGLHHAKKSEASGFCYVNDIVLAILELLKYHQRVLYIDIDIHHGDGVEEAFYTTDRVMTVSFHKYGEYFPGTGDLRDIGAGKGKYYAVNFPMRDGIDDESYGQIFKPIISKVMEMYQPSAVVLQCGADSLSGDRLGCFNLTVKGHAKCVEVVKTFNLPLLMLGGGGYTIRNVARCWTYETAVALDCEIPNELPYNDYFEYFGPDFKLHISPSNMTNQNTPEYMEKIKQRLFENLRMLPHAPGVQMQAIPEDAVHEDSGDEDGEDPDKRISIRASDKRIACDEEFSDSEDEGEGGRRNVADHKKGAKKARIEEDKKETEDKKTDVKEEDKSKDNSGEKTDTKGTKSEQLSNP

ACHN = test: NCI-60 antiproliferative screening; assay type: cell-based; conditions: Homo sapiens, read-out: percent inhibition
SK-MEL-5 = test: NCI-60 antiproliferative screening; assay type: cell-based; conditions: Homo sapiens, SK-MEL-5, read-out: percent inhibition
OVCAR-4 = test: NCI-60 antiproliferative screening; assay type: cell-based; conditions: Homo sapiens, OVCAR-4, read-out: percent inhibition
NCI-H522 = test: NCI-60 antiproliferative screening; assay type: cell-based; conditions: Homo sapiens, NCI-H522, read-out: percent inhibition
HCC-2998 = test: NCI-60 antiproliferative screening; assay type: cell-based; conditions: Homo sapiens, HCC 2998, read-out: percent inhibition
MDA-MB-435 = test: NCI-60 antiproliferative screening; assay type: cell-based; conditions: Homo sapiens, MDA-MB-435, read-out: percent inhibition
HDAC4 = HDAC4 (Homo sapiens, UniProt P56524); test: In vitro HDAC enzyme assay; assay type: biochemical
Chain of HDAC4 (P56524 whole entry): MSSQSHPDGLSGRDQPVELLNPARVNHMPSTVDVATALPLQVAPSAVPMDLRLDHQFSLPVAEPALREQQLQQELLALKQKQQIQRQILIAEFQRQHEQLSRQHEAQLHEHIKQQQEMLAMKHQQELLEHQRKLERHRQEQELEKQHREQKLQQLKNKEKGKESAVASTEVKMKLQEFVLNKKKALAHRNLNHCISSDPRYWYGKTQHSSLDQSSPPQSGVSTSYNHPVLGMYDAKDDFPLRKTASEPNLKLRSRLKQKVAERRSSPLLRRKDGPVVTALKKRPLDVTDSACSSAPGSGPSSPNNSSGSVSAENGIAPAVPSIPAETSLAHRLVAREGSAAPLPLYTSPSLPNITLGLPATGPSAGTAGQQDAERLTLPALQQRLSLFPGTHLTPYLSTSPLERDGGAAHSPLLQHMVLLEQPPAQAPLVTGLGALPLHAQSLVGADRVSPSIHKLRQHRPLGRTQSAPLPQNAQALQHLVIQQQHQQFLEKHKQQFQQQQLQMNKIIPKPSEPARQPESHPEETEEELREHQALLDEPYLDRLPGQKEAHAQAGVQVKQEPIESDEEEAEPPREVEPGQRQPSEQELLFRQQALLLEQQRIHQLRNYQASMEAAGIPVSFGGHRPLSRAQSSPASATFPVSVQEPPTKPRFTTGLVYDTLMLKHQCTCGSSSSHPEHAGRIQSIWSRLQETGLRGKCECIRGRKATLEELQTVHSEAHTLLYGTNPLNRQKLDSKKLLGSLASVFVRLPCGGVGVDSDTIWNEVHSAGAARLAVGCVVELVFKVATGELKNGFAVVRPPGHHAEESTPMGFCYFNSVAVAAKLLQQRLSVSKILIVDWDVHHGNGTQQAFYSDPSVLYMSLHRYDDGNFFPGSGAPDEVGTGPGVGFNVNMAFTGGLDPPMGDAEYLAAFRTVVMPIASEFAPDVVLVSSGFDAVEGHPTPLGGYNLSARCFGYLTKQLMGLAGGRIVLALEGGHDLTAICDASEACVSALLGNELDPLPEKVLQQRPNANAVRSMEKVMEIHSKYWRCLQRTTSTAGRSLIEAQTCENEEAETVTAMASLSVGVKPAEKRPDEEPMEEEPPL

SW-620 = test: NCI-60 antiproliferative screening; assay type: cell-based; conditions: Homo sapiens, SW-620, read-out: percent inhibition
T-47D = test: NCI-60 antiproliferative screening; assay type: cell-based; conditions: Homo sapiens, T47D, read-out: percent inhibition
UACC-257 = test: NCI-60 antiproliferative screening; assay type: cell-based; conditions: Homo sapiens, UACC-257, read-out: percent inhibition
U251 = test: NCI-60 antiproliferative screening; assay type: cell-based; conditions: Homo sapiens, U-251, read-out: percent inhibition
HDAC6 = HDAC6 (Homo sapiens, UniProt Q9UBN7); test: In vitro HDAC enzyme assay; assay type: biochemical
Chain of HDAC6 (Q9UBN7 whole entry): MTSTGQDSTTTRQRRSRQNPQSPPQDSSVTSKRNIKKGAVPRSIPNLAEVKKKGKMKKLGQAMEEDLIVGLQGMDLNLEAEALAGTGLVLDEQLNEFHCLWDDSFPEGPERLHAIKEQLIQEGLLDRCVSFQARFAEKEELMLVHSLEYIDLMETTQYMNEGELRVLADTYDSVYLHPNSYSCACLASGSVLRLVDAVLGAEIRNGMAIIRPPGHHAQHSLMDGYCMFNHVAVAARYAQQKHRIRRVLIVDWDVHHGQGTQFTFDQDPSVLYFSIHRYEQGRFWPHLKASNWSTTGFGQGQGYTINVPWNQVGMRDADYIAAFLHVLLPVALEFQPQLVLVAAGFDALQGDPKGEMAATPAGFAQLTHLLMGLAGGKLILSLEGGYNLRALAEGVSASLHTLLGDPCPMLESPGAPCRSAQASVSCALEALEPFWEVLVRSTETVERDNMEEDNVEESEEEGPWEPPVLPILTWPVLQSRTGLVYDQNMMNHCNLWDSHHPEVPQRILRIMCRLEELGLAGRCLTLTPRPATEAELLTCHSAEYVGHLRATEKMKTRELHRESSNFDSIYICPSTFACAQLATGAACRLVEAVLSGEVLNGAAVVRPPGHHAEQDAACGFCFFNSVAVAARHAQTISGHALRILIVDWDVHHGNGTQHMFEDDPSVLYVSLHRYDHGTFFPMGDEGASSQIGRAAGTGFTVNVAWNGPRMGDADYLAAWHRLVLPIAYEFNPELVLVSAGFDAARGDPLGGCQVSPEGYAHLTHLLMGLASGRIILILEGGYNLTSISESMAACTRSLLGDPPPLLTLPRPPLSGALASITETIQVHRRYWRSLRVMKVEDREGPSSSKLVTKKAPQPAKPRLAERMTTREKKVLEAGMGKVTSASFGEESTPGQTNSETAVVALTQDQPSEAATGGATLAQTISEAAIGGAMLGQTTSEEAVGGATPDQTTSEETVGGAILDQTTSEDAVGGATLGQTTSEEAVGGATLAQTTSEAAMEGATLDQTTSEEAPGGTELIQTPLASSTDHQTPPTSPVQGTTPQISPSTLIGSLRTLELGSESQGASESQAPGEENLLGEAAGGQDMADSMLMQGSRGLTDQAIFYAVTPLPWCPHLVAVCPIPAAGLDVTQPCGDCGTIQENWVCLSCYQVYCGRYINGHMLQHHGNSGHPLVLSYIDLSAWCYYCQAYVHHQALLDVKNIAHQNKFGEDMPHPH

OVCAR-8 = test: NCI-60 antiproliferative screening; assay type: cell-based; conditions: Homo sapiens, OVCAR-8, read-out: percent inhibition
NCI-H226 = test: NCI-60 antiproliferative screening; assay type: cell-based; conditions: Homo sapiens, NCI-H226, read-out: percent inhibition
SN12C = test: NCI-60 antiproliferative screening; assay type: cell-based; conditions: Homo sapiens, read-out: percent inhibition
OVCAR-3 = test: NCI-60 antiproliferative screening; assay type: cell-based; conditions: Homo sapiens, OVCAR-3, read-out: percent inhibition
HL60 = test: NCI-60 antiproliferative screening; assay type: cell-based; conditions: Homo sapiens, HL-60, read-out: percent inhibition
HS 578T = test: NCI-60 antiproliferative screening; assay type: cell-based; conditions: Homo sapiens, read-out: percent inhibition
UO-31 = test: NCI-60 antiproliferative screening; assay type: cell-based; conditions: Homo sapiens, UO-31, read-out: percent inhibition
RPMI-8226 = test: NCI-60 antiproliferative screening; assay type: cell-based; conditions: Homo sapiens, RPMI-8226, read-out: percent inhibition
SNB-75 = test: NCI-60 antiproliferative screening; assay type: cell-based; conditions: Homo sapiens, SNB-75, read-out: percent inhibition
MALME-3M = test: NCI-60 antiproliferative screening; assay type: cell-based; conditions: Homo sapiens, read-out: percent inhibition
UACC-62 = test: NCI-60 antiproliferative screening; assay type: cell-based; conditions: Homo sapiens, UACC-62, read-out: percent inhibition
HCT-116 = test: NCI-60 antiproliferative screening; assay type: cell-based; conditions: Homo sapiens, HCT-116, read-out: percent inhibition
[2] = tested on: colon cancer cell line HCT-116; test: Cell viability assay; assay type: cell-based; conditions: Homo sapiens, HCT-116, 72 h, read-out: Antiproliferative IC50 HCT116

IC50 (HDAC11): 1.8 ± 0.106 µM | inhibition of HDAC11 (in words) (HDAC11): weak inhibition | IC50 (HDAC2): 0.0235 ± 0.00103 µM | IC50 (HDAC4): > 50 µM | activity for HDAC4 (in words) (HDAC4): no activity | IC50 (HDAC6): 0.0045 ± 0.00021 µM | IC50 [2]: 1.54 ± 0.03 µM
Compound: COc1ccc(CN2[C@@H](C(=O)NCCCCCCC(=O)NO)Cc3c([nH]c4ccccc34)[C@@H]2C2CC2)cc1 [Compound 13d, (1S,3R)-1-Cyclopropyl-N-(7-(hydroxyamino)-7-oxoheptyl)-2-(4-methoxybenzyl)-2,3,4,9-tetrahydro-1H-pyrido[3,4-b]indole-3-carboxamide]
inhibition at 10 µM (K-562): 92.5% | inhibition at 10 µM (CAKI-1): 96% | inhibition at 10 µM (IGROV1): 100% | inhibition at 10 µM (MOLT-4): 87.8% | inhibition at 10 µM (NCI-H23): 100% | inhibition at 10 µM [1]: > 80% | inhibition at 10 µM (SK-MEL-28): 90.2% | inhibition at 10 µM (NCI-H460): 93.6% | inhibition at 10 µM (SK-MEL-2): 100% | inhibition at 10 µM (SF-539): 97.1% | inhibition at 10 µM (SNB-19): 93.3% | inhibition at 10 µM (CCRF-CEM): 80.3% | inhibition at 10 µM (MDA-MB-468): 95.9% | inhibition at 10 µM (SR): 84% | inhibition at 10 µM (DU-145): 90.6% | inhibition at 10 µM (SF-268): 85.5% | inhibition at 10 µM (ACHN): 99.3% | inhibition at 10 µM (SK-MEL-5): 100% | inhibition at 10 µM (OVCAR-4): 59.4% | inhibition at 10 µM (NCI-H522): 100% | inhibition at 10 µM (HCC-2998): 100% | inhibition at 10 µM (MDA-MB-435): 100% | inhibition at 10 µM (SW-620): 100% | inhibition at 10 µM (T-47D): 100% | inhibition at 10 µM (UACC-257): 90.1% | inhibition at 10 µM (U251): 100% | inhibition at 10 µM (OVCAR-8): 97.3% | inhibition at 10 µM (NCI-H226): 71.9% | inhibition at 10 µM (SN12C): 92.2% | inhibition at 10 µM (OVCAR-3): 96.8% | inhibition at 10 µM (HL60): 96.6% | inhibition at 10 µM (HS 578T): 100% | inhibition at 10 µM (UO-31): 92.3% | inhibition at 10 µM (RPMI-8226): 84.3% | inhibition at 10 µM (SNB-75): 89.8% | inhibition at 10 µM (MALME-3M): 98.5% | inhibition at 10 µM (UACC-62): 100% | inhibition at 10 µM (HCT-116): 97.9%
